Test results taken from patent US20240299359A1, “PHARMACEUTICAL COMPOSITION FOR ANIMALS CONTAINING 5-HYDROXY-METHYLIMIDAZOLIDINE-2,4-DIONE COMPOUND AS ACTIVE INGREDIENT” (KYONGBO PHARM. CO., LTD., priority 2021, published 2024).
“And” between values parts separate entries of the source, which are not always exact repeats. Equal entries are not always repeated.

System: beagles
Experiment: 13-week repeated oral toxicity: blood coagulation test (PT, aPTT, fibrinogen)
Format: in vivo, beagle
Procedure: Blood Coagulation Test (PT, aPTT, Fibrinogen)
2 ml of collected blood was placed in a 3.2% sodium citrate tube, and centrifuged at 4,000 rpm for 10 minutes at 4° C., and plasma was collected for blood coagulation analysis. Prothrombin time (PT), activated partial thromboplastin time (aPTT), and fibrinogen (FIB) were analyzed using a blood coagulation measuring device (Werfen ACL ELITE Pro).

[1] = G2 200 mg/kg, repeated administration for 13 week, female, group mean
[2] = G2 200 mg/kg, repeated administration for 13 week, female, individual animals
[3] = G2 200 mg/kg, repeated administration for 13 week, male, group mean
[4] = G2 200 mg/kg, repeated administration for 13 week, male, individual animals
[5] = G3 500 mg/kg, repeated administration for 13 week, female, group mean
[6] = G3 500 mg/kg, repeated administration for 13 week, female, individual animals
[7] = G3 500 mg/kg, repeated administration for 13 week, male, group mean
[8] = G3 500 mg/kg, repeated administration for 13 week, male, individual animals
[9] = G4 1,000 mg/kg, repeated administration for 13 week, female, group mean
[10] = G4 1,000 mg/kg, repeated administration for 13 week, female, individual animals
[11] = G4 1,000 mg/kg, repeated administration for 13 week, male, group mean
[12] = G4 1,000 mg/kg, repeated administration for 13 week, male, individual animals
[13] = before administration (day 0), 200 mg/kg group (G2), female, individual animals, 200 mg/kg
[14] = before administration (day 0), 200 mg/kg group (G2), female
[15] = before administration (day 0), 200 mg/kg group (G2), male, individual animals, 200 mg/kg
[16] = before administration (day 0), 200 mg/kg group (G2), male
[17] = before administration (day 0), 500 mg/kg group (G3), female, individual animals, 500 mg/kg
[18] = before administration (day 0), 500 mg/kg group (G3), female
[19] = before administration (day 0), 500 mg/kg group (G3), male, individual animals, 500 mg/kg
[20] = before administration (day 0), 500 mg/kg group (G3), male
[21] = before administration (day 0), 1,000 mg/kg group (G4), female, individual animals
[22] = before administration (day 0), 1,000 mg/kg group (G4), female
[23] = before administration (day 0), 1,000 mg/kg group (G4), male, individual animals
[24] = before administration (day 0), 1,000 mg/kg group (G4), male

CN1C(=O)NC(=O)C1O (stereo not drawn) [KBP-001, 5-hydroxy-1-methylimidazolidine-2,4-dione]
FIB [1]: 195.00 mg/dL | PT [1]: 7.67 s | aPTT [1]: 14.03 s | FIB [2]: 170 mg/dL and 164 mg/dL and 251 mg/dL | PT [2]: 7.6 sec (2×) and 7.8 sec | aPTT [2]: 13.8 s and 13.3 s and 15.0 s | FIB [3]: 293.00 mg/dL | PT [3]: 7.87 s | aPTT [3]: 13.13 s | FIB [4]: 299 mg/dL and 268 mg/dL and 312 mg/dL | PT [4]: 8.5 s and 8.2 s and 6.9 s | aPTT [4]: 12.7 s and 13.0 s and 13.7 s | FIB [5]: 250.00 mg/dL | PT [5]: 7.53 s | aPTT [5]: 14.37 s | FIB [6]: 212 mg/dL and 230 mg/dL and 308 mg/dL | PT [6]: 8.6 s and 6.7 s and 7.3 s | aPTT [6]: 15.2 s and 13.7 s and 14.2 s | FIB [7]: 312.67 mg/dL | PT [7]: 7.20 s | aPTT [7]: 15.17 s | FIB [8]: 347 mg/dL and 302 mg/dL and 289 mg/dL | PT [8]: 7.4 s and 7.2 s and 7.0 s | aPTT [8]: 15.3 s and 14.8 s and 15.4 s | FIB [9]: 307.00 mg/dL | PT [9]: 7.57 s | aPTT [9]: 14.03 s | FIB [10]: 442 mg/dL and 273 mg/dL and 206 mg/dL | PT [10]: 7.1 sec (2×) and 8.5 sec | aPTT [10]: 12.9 s and 13.0 s and 16.2 s | FIB [11]: 318.67 mg/dL | PT [11]: 7.53 s | aPTT [11]: 13.93 s | FIB [12]: 292 mg/dL and 386 mg/dL and 278 mg/dL | PT [12]: 7.6 s and 7.3 s and 7.7 s | aPTT [12]: 15.2 s and 12.8 s and 13.8 s | FIB [13]: 114 mg/dL and 184 mg/dL and 218 mg/dL | PT [13]: 8.5 s and 7.6 s and 7.3 s | aPTT [13]: 14.9 s and 15.3 s and 14.0 s | FIB, Mean [14]: 172.00 mg/dL | PT, Mean [14]: 7.80 s | aPTT, Mean [14]: 14.73 s | FIB [15]: 270 mg/dL and 254 mg/dL and 233 mg/dL | PT [15]: 9.2 s and 8.4 s and 7.2 s | aPTT [15]: 15.5 s and 12.1 s and 12.4 s | FIB, Mean [16]: 252.33 mg/dL | PT, Mean [16]: 8.27 s | aPTT, Mean [16]: 13.33 s | FIB [17]: 186 mg/dL and 199 mg/dL and 268 mg/dL | PT [17]: 8.8 s and 7.4 s and 7.9 s | aPTT [17]: 14.5 s and 11.9 s and 13.8 s | FIB, Mean [18]: 217.67 mg/dL | PT, Mean [18]: 8.03 s | aPTT, Mean [18]: 13.40 s | FIB [19]: 235 mg/dL and 254 mg/dL and 239 mg/dL | PT [19]: 7.6 s and 7.2 s and 7.3 s | aPTT [19]: 15.2 s and 14.6 s and 12.1 s | FIB, Mean [20]: 242.67 mg/dL | PT, Mean [20]: 7.37 s | aPTT, Mean [20]: 13.97 s | FIB [21]: 237 mg/dL and 230 mg/dL and 258 mg/dL | PT [21]: 7.6 s and 7.8 s and 8.3 s | aPTT [21]: 11.1 s and 14.2 s and 15.6 s | FIB, Mean [22]: 194.73 mg/dL | PT, Mean [22]: 6.53 s | aPTT, Mean [22]: 11.62 s | FIB [23]: 305 mg/dL and 312 mg/dL and 237 mg/dL | PT [23]: 8.3 s and 7.2 s and 8.0 s | aPTT [23]: 14.8 s and 11.3 s and 14.7 s | FIB, Mean [24]: 200.81 mg/dL | PT, Mean [24]: 6.57 s | aPTT, Mean [24]: 11.52 s
